The values that follow come from ChEMBL document CHEMBL1133878, “Selectivity enhancement induced by substitution of non-natural analogues of arginine and lysine in arginine-based thrombin inhibitors” (Bioorg Med Chem Lett, 2001).

SMILES strings stand for the structures. Some results are limits rather than exact numbers.

One experiment concerns the target T1, Serine protease 1 (Bos taurus, UniProt P00760).
T1 sequence (P00760 whole entry): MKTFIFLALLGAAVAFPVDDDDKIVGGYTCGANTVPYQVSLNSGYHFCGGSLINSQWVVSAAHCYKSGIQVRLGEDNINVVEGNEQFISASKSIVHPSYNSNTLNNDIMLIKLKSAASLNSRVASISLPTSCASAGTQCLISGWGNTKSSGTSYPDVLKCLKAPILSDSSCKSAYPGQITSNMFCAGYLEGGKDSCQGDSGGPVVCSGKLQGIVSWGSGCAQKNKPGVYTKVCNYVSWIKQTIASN
Nature of the experiment: Binding affinity determined against trypsin by Dixon method.
As a reminder, the Ki is a dissociation constant, usually derived from enzyme kinetics or from competition with a known ligand. The compound `C/N=C(/N)NCCCC(NS(=O)(=O)c1cccc2c(N(C)C)cccc12)C(=O)N1CCCCC1` (stereo unspecified) yielded a Ki of 922 µM.
Same read-out and setting: with `CN(C)c1cccc2c(S(=O)(=O)NC(CCCN=C(N)N)C(=O)N3CCCCC3)cccc12` (stereo unspecified) the figure was 2.34 µM; with `CN(C)c1cccc2c(S(=O)(=O)NC(CCCN3CCN=C3N)C(=O)N3CCCCC3)cccc12` (stereo unspecified), 278 µM; with `CN(C)c1cccc2c(S(=O)(=O)NC(CCCNC3=NCCN3)C(=O)N3CCCCC3)cccc12` (stereo unspecified), 116 µM.
On the same count and under the same terms, with `CC/N=C(/N)NCCCC(NS(=O)(=O)c1cccc2c(N(C)C)cccc12)C(=O)N1CCCCC1` (stereo unspecified) the figure was 337 µM.

For a further experiment, the target named is Prothrombin (Homo sapiens, UniProt P00734). Briefly: Binding affinity determined against thrombin by Dixon method.
The compound `C/N=C(/N)NCCCC(NS(=O)(=O)c1cccc2c(N(C)C)cccc12)C(=O)N1CCCCC1` (stereo unspecified) had an inhibition constant Ki of 0.958 µM.
The same measure, in the same setting: under `CN(C)c1cccc2c(S(=O)(=O)NC(CCCN=C(N)N)C(=O)N3CCCCC3)cccc12` (stereo unspecified) stands 0.083 µM; under `CN(C)c1cccc2c(S(=O)(=O)NC(CCCN3CCN=C3N)C(=O)N3CCCCC3)cccc12` (stereo unspecified), 0.53 µM.
Same read-out and setting: with `CN(C)c1cccc2c(S(=O)(=O)NC(CCCNC3=NCCCN3)C(=O)N3CCCCC3)cccc12` (stereo unspecified) the figure was over 10 µM; with `CC/N=C(/N)NCCCC(NS(=O)(=O)c1cccc2c(N(C)C)cccc12)C(=O)N1CCCCC1` (stereo unspecified), 1.89 µM; with `CNC(C)CCCCC(NS(=O)(=O)c1cccc2c(N(C)C)cccc12)C(=O)N1CCCCC1` (stereo unspecified), over 10 µM.

Another experiment deals with Thrombin & trypsin (Homo sapiens) (UniProt P00734+P07477+P07478+P35030). Nature of the experiment: Selectivity ratio (trypsin/thrombin) was calculated. The class given is protein assay.
As for `C/N=C(/N)NCCCC(NS(=O)(=O)c1cccc2c(N(C)C)cccc12)C(=O)N1CCCCC1` (stereo unspecified), the Selectivity ratio is 962.
Consider `CN(C)c1cccc2c(S(=O)(=O)NC(CCCN=C(N)N)C(=O)N3CCCCC3)cccc12` (stereo unspecified), for which the Selectivity ratio is 28.2.
On the same count and under the same terms, with `CN(C)c1cccc2c(S(=O)(=O)NC(CCCN3CCN=C3N)C(=O)N3CCCCC3)cccc12` (stereo unspecified) the figure was 525.
For the compound `CN(C)c1cccc2c(S(=O)(=O)NC(CCCNC3=NCCN3)C(=O)N3CCCCC3)cccc12` (stereo unspecified), the Selectivity ratio was 29.4.
On to `CC/N=C(/N)NCCCC(NS(=O)(=O)c1cccc2c(N(C)C)cccc12)C(=O)N1CCCCC1` (stereo unspecified), for which the Selectivity ratio was 178.
